Data from PMC10179352, “Clostridia and Enteroviruses as Synergistic Triggers of Type 1 Diabetes Mellitus” (International Journal of Molecular Sciences, 2023).

Tests used:
INS = INS (Homo sapiens, UniProt P01308); conditions: ultraviolet spectrometry; derived from previous study; read-out: Binding Constants, INS; cited from earlier work
Text: (§1) Table 1 Summary of ultraviolet spectrometry experiments concerning binding of T cell receptor sequences expanded in type 1 diabetic patients (TCR DIA) to a COX peptide (Cox Pep) that mimics the INS receptor (Ins Rec), two Clostridium peptides (Clost Pep) that mimic INS, two INS receptor peptides identified by their amino acid sequence numbers, and INS itself. Gluc = glucagon-like sequence; GR = gl | column: INS

Clost Pep #2 = assay: Ultraviolet spectrometry peptide binding; design: species or system Clostridium; conditions: estimated from inflection points of the curves, read-out: Binding Constants, Clost Pep #2
Text: (§2) Because some COX antigens mimic INSR sequences and some Clostridia antigens mimic INS, we synthesized several microbial peptide sequences that mimicked these human proteins and used ultraviolet spectroscopy to determine whether they bound to each other, as would be the case if they were complementary antigens. Figure 12 provides the peptide sequences and their similarities to either INS or INSR. Clostridium similarities to the INS A chain were specifically chosen because the role of the A chain in the induction of T1DM is generally ignored in favor of the B chain.
(§3) Previous investigators have sequenced the T cell receptor (TCR) sequences that are expanded in T1DM patients with particular specificities for INS or INSR [61, 62]. […] TCR 1, 2, and 4 were from one patient; TCR 8, 9, and 10 were from a second patient; and TCR K2.4, K2.12, and K2.16 were from a third. Ultraviolet light spectrometry was used to determine whether each TCR sequence recognized the COX and Clostridia peptides used in the previous set of experiments (Figure 12). The results are shown in Table 1, Figure 13, and Appendix F.

Clost Pep #3 = assay: Ultraviolet spectrometry peptide binding; design: species or system Clostridium; conditions: estimated from inflection points of the curves, read-out: Binding Constants, Clost Pep #3
Text: as §2, §3

Ins Rec 897–915 = conditions: ultraviolet spectrometry; derived from previous study; read-out: Binding Constants, Ins Rec 897–915; cited from earlier work
Text: as §1, with “column: Ins Rec 897–915” for “column: INS”

[1] = biological target: Cox Pep #1 (COX peptide that mimics the INS receptor); assay: Ultraviolet spectrometry peptide binding; conditions: estimated from inflection points of the curves, read-out: Binding Constants, Cox Pep #1
Text: as §2, §3

Ins Rec 105–118 = conditions: ultraviolet spectrometry; derived from previous study; read-out: Binding Constants, Ins Rec 105–118; cited from earlier work
Text: as §1, with “column: Ins Rec 105–118” for “column: INS”

Chain of INS (P01308 25-54): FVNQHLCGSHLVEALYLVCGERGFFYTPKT
Chain of INS (P01308 90-110): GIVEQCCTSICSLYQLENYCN

Compound: CC[C@H](C)[C@H](NC(=O)[C@@H](NC(=O)[C@H](C)NC(=O)[C@H](CC(C)C)NC(=O)[C@H](CO)NC(=O)[C@H](CO)NC(=O)[C@H](C)NC(=O)[C@@H](N)CS)C(C)C)C(=O)N[C@@H](CCCNC(=N)N)C(=O)N[C@H](C(=O)O)[C@@H](C)O (single isomer, unassigned) [TCR DIA 2, K2.16]
- Kd (INS): > 1000 µM

Compound: CC(C)C[C@H](NC(=O)[C@H](C)NC(=O)[C@H](CO)NC(=O)[C@@H](N)CC(=O)O)C(=O)N[C@@H](Cc1ccc(O)cc1)C(=O)N[C@@H](CC(C)C)C(=O)N[C@@H](CS)C(=O)N[C@@H](C)C(=O)N[C@@H](CO)C(=O)N[C@@H](CO)C(=O)N[C@@H](CC(C)C)C(=O)NCC(=O)O (single isomer, unassigned) [TCR DIA 4,8,9]
- Kd (INS): > 1000 µM

Compound: CASSIYLCSVEATRAD [TCR DIA 1]
- Kd (Clost Pep #2): 100 µM
- Kd (Clost Pep #3): 100 µM
- Kd (Ins Rec 897–915): 300 µM
- Kd [1]: 400 µM
- Kd (Ins Rec 105–118): 125 µM
- Kd (INS): 80 µM
